Our source for the IC50 values is patent US9932314B2, “Pyrazole compounds and their use as T-type calcium channel blockers” (IDORSIA PHARMACEUTICALS LTD, priority 2015, dated 2018).

SMILES strings stand for the structures.

This experiment deals with T1, voltage-dependent T-type calcium channel subunit alpha-1G (Cav3.2) (Homo sapiens, UniProt O95180).
T1 construct: expressed in transfected cells; host or cells: HEK293
T1 sequence (O95180 whole entry): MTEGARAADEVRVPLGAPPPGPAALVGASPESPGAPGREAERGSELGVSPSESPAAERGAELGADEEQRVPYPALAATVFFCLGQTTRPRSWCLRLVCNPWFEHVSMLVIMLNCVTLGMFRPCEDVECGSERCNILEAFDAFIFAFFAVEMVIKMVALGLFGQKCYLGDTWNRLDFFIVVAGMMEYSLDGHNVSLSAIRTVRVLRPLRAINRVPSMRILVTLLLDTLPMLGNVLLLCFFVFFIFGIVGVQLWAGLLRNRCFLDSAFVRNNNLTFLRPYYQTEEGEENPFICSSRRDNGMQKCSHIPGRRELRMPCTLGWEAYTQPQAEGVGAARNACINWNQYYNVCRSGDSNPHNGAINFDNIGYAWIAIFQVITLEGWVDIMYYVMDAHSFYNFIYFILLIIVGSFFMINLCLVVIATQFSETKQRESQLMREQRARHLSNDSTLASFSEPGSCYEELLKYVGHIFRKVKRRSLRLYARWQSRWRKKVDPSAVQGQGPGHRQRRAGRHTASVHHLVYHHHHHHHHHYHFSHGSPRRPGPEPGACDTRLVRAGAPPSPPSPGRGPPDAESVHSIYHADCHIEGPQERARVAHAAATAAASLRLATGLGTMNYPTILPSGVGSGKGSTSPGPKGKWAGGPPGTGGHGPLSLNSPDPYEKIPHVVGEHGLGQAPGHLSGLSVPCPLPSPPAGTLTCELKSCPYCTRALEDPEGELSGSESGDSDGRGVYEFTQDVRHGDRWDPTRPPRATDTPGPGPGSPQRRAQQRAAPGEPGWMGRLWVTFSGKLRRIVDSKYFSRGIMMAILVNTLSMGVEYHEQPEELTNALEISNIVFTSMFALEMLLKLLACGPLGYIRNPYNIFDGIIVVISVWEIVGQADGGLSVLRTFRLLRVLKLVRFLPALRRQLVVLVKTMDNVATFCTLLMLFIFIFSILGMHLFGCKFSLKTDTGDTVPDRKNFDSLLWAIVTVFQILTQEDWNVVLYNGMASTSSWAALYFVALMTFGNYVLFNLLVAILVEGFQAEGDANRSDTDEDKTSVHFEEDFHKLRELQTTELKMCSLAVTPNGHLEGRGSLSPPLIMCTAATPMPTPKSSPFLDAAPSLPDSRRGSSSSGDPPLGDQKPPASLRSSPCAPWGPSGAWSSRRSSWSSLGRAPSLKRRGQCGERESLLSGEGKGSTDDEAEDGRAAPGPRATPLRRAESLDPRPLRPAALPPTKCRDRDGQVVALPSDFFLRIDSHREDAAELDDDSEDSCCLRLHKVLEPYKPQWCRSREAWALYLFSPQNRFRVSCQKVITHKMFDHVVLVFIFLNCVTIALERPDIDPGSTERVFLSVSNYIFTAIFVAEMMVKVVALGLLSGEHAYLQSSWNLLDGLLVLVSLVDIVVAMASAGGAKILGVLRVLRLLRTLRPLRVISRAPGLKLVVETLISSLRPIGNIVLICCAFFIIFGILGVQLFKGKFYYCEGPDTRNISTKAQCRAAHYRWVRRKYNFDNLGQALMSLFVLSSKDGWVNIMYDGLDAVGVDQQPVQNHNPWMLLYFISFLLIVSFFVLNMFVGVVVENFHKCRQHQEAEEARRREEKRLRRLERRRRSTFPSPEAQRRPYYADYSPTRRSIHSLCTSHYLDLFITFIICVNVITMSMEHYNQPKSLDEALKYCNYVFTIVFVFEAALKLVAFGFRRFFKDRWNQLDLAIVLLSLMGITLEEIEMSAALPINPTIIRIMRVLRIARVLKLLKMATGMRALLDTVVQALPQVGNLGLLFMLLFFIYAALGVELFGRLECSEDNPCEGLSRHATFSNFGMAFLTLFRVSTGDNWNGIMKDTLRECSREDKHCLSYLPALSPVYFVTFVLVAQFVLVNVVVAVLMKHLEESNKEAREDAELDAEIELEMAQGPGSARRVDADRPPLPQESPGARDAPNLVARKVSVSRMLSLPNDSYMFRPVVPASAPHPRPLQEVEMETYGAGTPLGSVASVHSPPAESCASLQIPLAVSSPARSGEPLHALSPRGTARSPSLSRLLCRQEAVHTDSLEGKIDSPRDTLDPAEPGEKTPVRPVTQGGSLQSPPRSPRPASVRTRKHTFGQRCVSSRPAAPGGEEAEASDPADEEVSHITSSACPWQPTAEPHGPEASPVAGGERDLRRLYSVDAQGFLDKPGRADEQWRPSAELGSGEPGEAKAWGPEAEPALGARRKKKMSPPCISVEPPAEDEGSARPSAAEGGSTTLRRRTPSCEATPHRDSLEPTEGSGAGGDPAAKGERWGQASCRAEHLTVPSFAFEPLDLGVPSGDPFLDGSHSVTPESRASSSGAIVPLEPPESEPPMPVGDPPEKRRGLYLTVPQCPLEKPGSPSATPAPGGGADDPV
As to the kind of experiment: FLIPR calcium flux assay, HEK293 cells recombinantly expressing Cav3.2. The note with it: Cav3.2-channel, Fluo-4-AM, 3 min incubation, stimulation with 10 mM CaCl2. Format: cell-based. Put shortly: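 HEK293 cells stably expressing human Cav3.2 were loaded with Fluo-4-AM. Compounds diluted in TEAC buffer (pH 7.2) were preincubated for 3 min, then Ca2+ entry was triggered by 10 mM final CaCl2. Inhibition curves were fitted sigmoidally to the area under the fluorescence trace.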
For the molecule `O=C(Cc1ccc(N2CC[C@@H](F)C2)nc1)Nc1ccn(Cc2ccc(F)cc2)n1` [Example 141, N-[1-(4-Fluoro-benzyl)-1H-pyrazol-3-yl]-2-[6-((R)-3-fluoro-pyrrolidin-1-yl)-pyridin-3-yl]-acetamide], the IC50 came to 35 nM.

Consider `N#Cc1ccc(Cn2ccc(NC(=O)Cc3ccc(N4CC(F)(F)C4)nc3)n2)nc1` [Example 142, N-[1-(5-Cyano-pyridin-2-ylmethyl)-1H-pyrazol-3-yl]-2-[6-(3,3-difluoro-azetidin-1-yl)-pyridin-3-yl]-acetamide], for which the IC50 is 185 nM.

On to `O=C(Cc1ccc(N2CC(F)(F)C2)nc1)Nc1ccn(Cc2ccc(F)c(F)c2)n1` [Example 143, 2-[6-(3,3-Difluoro-azetidin-1-yl)-pyridin-3-yl]-N-[1-(3,4-difluoro-benzyl)-1H-pyrazol-3-yl]-acetamide], for which the IC50 amounted to 19 nM.

For the molecule `N#Cc1ccc(Cn2ccc(NC(=O)Cc3ccc(N4CC(F)(F)C4)nc3)n2)cc1` [Example 144, N-[1-(4-Cyano-benzyl)-1H-pyrazol-3-yl]-2-[6-(3,3-difluoro-azetidin-1-yl)-pyridin-3-yl]-acetamide], the IC50 amounted to 160 nM.

On to `O=C(Cc1ccc(N2CC(F)(F)C2)nc1)Nc1ccn(Cc2ccc(F)cc2)n1` [Example 145, 2-[6-(3,3-Difluoro-azetidin-1-yl)-pyridin-3-yl]-N-[1-(4-fluoro-benzyl)-1H-pyrazol-3-yl]-acetamide], for which the IC50 is 44 nM.

As to `COc1ccc(Cn2ccc(NC(=O)Cc3ccc(N4CC(F)(F)C4)nc3)n2)cc1` [Example 146, 2-[6-(3,3-Difluoro-azetidin-1-yl)-pyridin-3-yl]-N-[1-(4-methoxy-benzyl)-1H-pyrazol-3-yl]-acetamide], the IC50 is 136 nM.

In the case of `CC(C)Cc1ccc(CC(=O)Nc2ccn(Cc3ccc(F)cc3)n2)cc1` [Example 147, N-[1-(4-Fluoro-benzyl)-1H-pyrazol-3-yl]-2-(4-isobutyl-phenyl)-acetamide], the IC50 was found to be 13 nM.

For `CC(C)c1ccc(CC(=O)Nc2ccn(Cc3ccc(C#N)c(F)n3)n2)cc1` [Example 148, N-[1-(5-Cyano-6-fluoro-pyridin-2-ylmethyl)-1H-pyrazol-3-yl]-2-(4-isopropyl-phenyl)-acetamide], the IC50 was 7.6 nM.

In the case of `CN(C)c1ccc(CC(=O)Nc2ccn(Cc3ccc(F)cn3)n2)cc1` [Example 149, 2-(4-Dimethylamino-phenyl)-N-[1-(5-fluoro-pyridin-2-ylmethyl)-1H-pyrazol-3-yl]-acetamide], the IC50 was 85 nM.

With `CN(C)c1ccc(CC(=O)Nc2ccn(Cc3ccc(F)cn3)n2)cn1` [Example 150, 2-(6-Dimethylamino-pyridin-3-yl)-N-[1-(5-fluoro-pyridin-2-ylmethyl)-1H-pyrazol-3-yl]-acetamide], the IC50 was found to be 682 nM.

In the case of `CN(CC(F)F)c1ccc(CC(=O)Nc2ccn(Cc3ccc(C#N)cn3)n2)cn1` [Example 151, N-[1-(5-Cyano-pyridin-2-ylmethyl)-1H-pyrazol-3-yl]-2-{6-[(2,2-difluoro-ethyl)-methyl-amino]-pyridin-3-yl}-acetamide], the IC50 is 649 nM.

As to `N#Cc1ccc(Cn2ccc(NC(=O)Cc3ccc(N4CC[C@H](F)C4)nc3)n2)nc1` [Example 152, N-[1-(5-Cyano-pyridin-2-ylmethyl)-1H-pyrazol-3-yl]-2-[6-((S)-3-fluoro-pyrrolidin-1-yl)-pyridin-3-yl]-acetamide], the IC50 turned out to be 1160 nM.

As for `N#Cc1ccc(Cn2ccc(NC(=O)Cc3ccc(N4CC[C@H](F)C4)nc3)n2)cc1` [Example 154, N-[1-(4-Cyano-benzyl)-1H-pyrazol-3-yl]-2-[6-((S)-3-fluoro-pyrrolidin-1-yl)-pyridin-3-yl]-acetamide], the IC50 came to 78 nM.

Consider `O=C(Cc1ccc(N2CC[C@H](F)C2)nc1)Nc1ccn(Cc2ccc(F)cc2)n1` [Example 155, N-[1-(4-Fluoro-benzyl)-1H-pyrazol-3-yl]-2-[6((S)-3-fluoro-pyrrolidin-1-yl)-pyridin-3-yl]-acetamide], for which the IC50 came out at 70 nM.
